Patent US11643405B2, “Compound for treatment or prevention of liver diseases” (JIANGSU ATOM BIOSCIENCE AND PHARMACEUTICAL CO., LTD., priority 2018, dated 2023)
Values after ≈ are worked out from the molar mass of the structure shown. Marks after values point to notes of the source that are not given here.

How the values were obtained:
[1] = tested on: zebrafish non-alcoholic fatty liver; experiment: Fat reduction or elimination effect on thioacetamide-induced zebrafish non-alcoholic fatty liver (Oil Red O staining); format: in vivo; conditions: 100 μM; for The total optical density of liver fat: mean ± SE, n = 10; for inhibition at 100 µM: Danio rerio, read-out: Inhibition rate of liver steatosis
Method: 40 mM stock solution of test compounds 4, 5, 6, 7, 46, 67, 78, 85, 92 and 101 were prepared with DMSO, and stored in a refrigerator at −20° C. The positive control compound S-adenosylmethionine (SAM) was purchased from Aladdin Reagent (Shanghai) Co., Ltd., with the batch number F1523051, which was prepared into a 50 mM stock solution with DMSO. The control compound silymarin was purchased from Shanghai Dibai Biotechnology Co., Ltd., with the batch number EE09, which was prepared into a 40 mM stock solution with DMSO. Thioacetamide was purchased from Sigma-Aldrich, with the batch number BCBV3031, which wasprepared into a 1 M stock solution with DMSO. Oil Red O was purchased from Sigma-Aldrich, with the batch number SLBP5248V. 4% paraformaldehyde was purchased from Dingguo Biotechnology Co., Ltd., with the batch number 773001800. Propylene glycol was purchased from Sinopharm Chemical Reagent Co., Ltd., with the batch number 20170615.
The melanin allele mutant translucent Albino line zebrafish was reproduced in natural paired mating. The fish age was 3 days after fertilization, with 30 fish per experimental group.
The above zebrafish were raised in fish farming water at 28° C. (water quality: 200 mg instant sea salt was added to 1 L of reverse osmosis water, conductivity was 480-510 μS/cm; pH was 6.9-7.2; hardness was 53.7-71.6 mg/L CaCOs), the experimental animal use license number was: SYXK (Zhejiang) 2012-0171. Feeding management met the requirements of international AAALAC certification.
Three days after fertilization, the normal melanin allele mutant translucent Albino strain of zebrafish was randomly selected and placed in a six well plate with 30 fish per well (i.e. each experimental group), and then thioacetamide with the final concentration of 7 mM was used to treat zebrafish for 72 hours to establish the non-alcoholic fatty liver model.
The zebrafish were transferred to a six-well plate, with 30 fish per well (i.e., each experimental group) randomly. Non-alcoholic fatty liver model in zebrafish were induced by thioacetamide. 40 mM test compounds 4, 5, 6, 7, 46, 67, 78, 85, 92 and 101 were quantitatively transferred to a six-well plate, and diluted with water to the corresponding concentration. Test compounds 4, 5, 6 and 7 were formulated into two dose groups with final concentration of 100 μM and 200 μM, respectively; test compound 46 was formulated into a dose group with final concentration of 200 μM; test compounds 67, 78, 85, 92 and 101 were formulated into dose groups with a final concentration of 100 μM; 50 mM positive control SAM was formulated with water to a dose group with final concentration of 50 μM, and a 40 mM positive control silymarin was formulated with water to two concentration dose groups with final concentration of 100 μM and 200 μM. A normal control group (zebrafish treated with fish farming water) and a model control group were set at the same time, and the total volume of each well was 3 mL. Except for the normal control group, the other experimental groups were treated with thioacetamide for 72 hours and stained with Oil Red O. After staining, 10 zebrafish were randomly selected from each experimental group and photographed under a dissecting microscope, NIS-Elements D 3.10 advanced image processing software was used to perform image analysis and collect data, the total optical density (S) of zebrafish liver fat was statistically analyzed, and for the inhibitory effect of each experimental group on liver steatosis of zebrafishwas evaluated by the following formula, the results of statistical analysis were expressed as mean±SE: Inhibition rate of liver steatosis (%)=[S(model control group)−S(test compound group)]/[S(model control group)−S(normal control group)]×100%
Statistical analysis was performed using analysis of variance and Dunnett's T-test, and p<0.05 indicated a significant difference. […]

[2] = Determination of compound solubility in PBS buffer (LC-MS/MS); format: physicochemical; conditions: for solubility at 2 h: 25 °C, kinetic from dmso stock; for Solubility in PBS buffer solution compared with silymarin (in words): pH 4
Method: The test compounds were 7, 67 and 85, respectively; the control compound was silymarin, purchased from Shanghai Dibai Biotechnology Co., Ltd., with the batch number HH06. Both the test compounds and the control compound were prepared into 10 mM stock solutions using DMSO. Phosphate buffered saline (PBS), with pH of 4.0 and 7.4, was used to test the solubility of the test compounds.
Treatment of test compound and control compound: 30 μL of test compound or control compound stock solution (10 mM) per well was added in a specially made solubility sample plate, and then 970 μL of PBS with different pH was added to each well (pH was 4.0 and 7.4, respectively). Repeated wells were set in the test. A stir bar was added to each well that was covered with a polytetrafluoroethylene or silica gel plug. Stirring was performed at 25° C. at 1100 rpm for 2 hours. 10 μL of sample was taken from each well, and then 990 μL of water and acetonitrile mixture (including internal standard substance) was added to mix well, followed by filtering with a filter plate.
Standard treatment: 10 mM stock solution was diluted with DMSO to 300 μM, then 10 μL of compound diluent was taken, and 990 μL of water and acetonitrile mixture (including internal standard substance) was added to mix well and formulated into a standard solution with the final concentration 3 μM.
The solubility sample plate was placed in the autosampler and the LC-MS/MS method was used for analysis. The concentration of the test compound was calculated by the response value of the test compound and standard, and the concentration of the standard.

[3] = tested on: adults with nonalcoholic steatohepatitis (NASH) and fibrosis stages F2-F3; conditions: phase II clinical results; cited from earlier work
[4] = tested on: Patients With Primary Biliary Cirrhosis; conditions: phase III study; cited from earlier work

COc1cc(O)c2c(c1)OC(c1cc(O)c3c(c1)OC(c1ccc(O)c(OC)c1)C(CO)O3)C(O)C2 (stereo not shown) [Compound 67, 2-{8-hydroxy-3-(4-hydroxy-3-methoxyphenyl)-2-hydroxymethyl-2,3-dihydrobenzo[b][1,4]dioxan-6-yl}-7-methoxychroman-3,5-diol]
Inhibition rate of liver steatosis [1]: >100*** % | Therapeutic effect on non-alcoholic fatty liver of zebrafish (in words) [1]: significant therapeutic effects | The total optical density of liver fat [1]: 16667 ± 469 Pixels | inhibition at 100 µM [1]: > 100% | solubility at 2 h ([2]; pH 4, aqueous buffer): 148 µM (≈ 73.9 µg/mL) | solubility at 2 h ([2]; pH 7.4, aqueous buffer): 146 µM (≈ 72.9 µg/mL) | Solubility in PBS buffer solution compared with silymarin (in words) [2]: significantly higher than that of silymarin

COc1cc(C2Oc3cc(C4Oc5cc(O)cc(OC)c5CC4O)cc(O)c3OC2CO)ccc1O (stereo not shown) [Compound 85, 2-{8-hydroxy-3-(4-hydroxy-3-methoxyphenyl)-2-hydroxymethyl-2,3-dihydrobenzo[b][1,4]dioxan-6-yl}-5-methoxychroman-3,7-diol]
Inhibition rate of liver steatosis [1]: >100*** % | Therapeutic effect on non-alcoholic fatty liver of zebrafish (in words) [1]: significant therapeutic effects | The total optical density of liver fat [1]: 17378 ± 710 Pixels | inhibition at 100 µM [1]: > 100% | solubility at 2 h ([2]; pH 4, aqueous buffer): 160 µM (≈ 79.7 µg/mL) | solubility at 2 h ([2]; pH 7.4, aqueous buffer): 150 µM (≈ 75 µg/mL) | Solubility in PBS buffer solution compared with silymarin (in words) [2]: significantly higher than that of silymarin

Cc1cc(F)c(C(=O)Nc2cccc(-c3nncn3C(C)C)n2)cc1-n1cnc(C2CC2)c1 [GS-4997]
subjects with improved fibrosis after treatment [3]: 43%

CC[C@H]1[C@@H](O)[C@@H]2[C@H](CC[C@]3(C)[C@@H]([C@H](C)CCC(=O)O)CC[C@@H]23)[C@@]2(C)CC[C@@H](O)C[C@@H]12 [Obeticholic acid]
patients with serious cardiovascular adverse events [4]: 3%
